Measured values as given in ChEMBL document CHEMBL1649295, “Pharmacokinetic-pharmacodynamic modeling of the in vitro activities of oxazolidinone antimicrobial agents against methicillin-resistant Staphylococcus aureus” (Antimicrob Agents Chemother, 2009).
≈ marks a conversion by molar mass, not a printed value. Calls of active or inactive are those of the source. The rule behind the calls is not given here.

Legend:
Staphylococcus aureus [1] = test: Antibacterial activity against methicillin-resistant Staphylococcus aureus OC2878 assessed as inhibition of bacterial regrowth at 16 times MIC after 24 hrs by dynamic time kill study; assay type: functional, organism-based
Staphylococcus aureus [2] = test: Antibacterial activity against methicillin-resistant Staphylococcus aureus OC2878 assessed as log reduction in bacterial count at 8 times MIC after 24 hrs by time kill study; assay type: functional
Staphylococcus aureus [3] = test: Antibacterial activity against methicillin-resistant Staphylococcus aureus OC2878 by broth macrodilution method
Staphylococcus aureus [4] = test: Antibacterial activity against methicillin-resistant Staphylococcus aureus OC2878 assessed as inhibition of bacterial regrowth at 16 times MIC after 8 hrs by dynamic time kill study; assay type: functional, organism-based
[5] = Chemical stability of the compound assessed as compound degradation at 16 times MIC after 24 hrs by RP-HPLC analysis; assay type: physicochemical

SMILES | inhibition (Staphylococcus aureus [1]) | log10cfu (Staphylococcus aureus [2]) | MIC (Staphylococcus aureus [3]) | inhibition (Staphylococcus aureus [4]) | Stability [5]
CC(=O)NC[C@H]1CN(c2ccc(N3Cc4cn(C)nc4C3)c(F)c2)C(=O)O1 | Active | 2 | 0.5 µg/mL (≈ 1.34 µM) | – | –
CC(=O)NC[C@H]1CN(c2ccc(N3CCOCC3)c(F)c2)C(=O)O1 [LINEZOLID] | – | 2 | 1 µg/mL (≈ 2.96 µM) | inactive | Stable
